# Legend:
# [1] = Determination of the microsomal half-life / microsomal clearance, human liver microsomes; format: in vitro ADME; details: 0.5 μM test substance, 0.25 mg of microsomal protein/mL, NADPH, 37° C.
# In short: (§1)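 Compound (0.5 μM) was preincubated 5 min at 37 °C with rat or human liver microsomes (0.25 mg protein/mL) in 0.05 M phosphate pH 7.4, and NADPH (1 mg/mL) was then added. Samples taken at 0-30 min and quenched with acetonitrile were analysed by MS/MS. T½ was derived assuming first-order decay, and clearance […] was calculated from T½ and protein content.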
# PDE10A = PDE10A (UniProt Q9Y233); experiment: Measurement of PDE activity (HTRF cAMP kit, recombinant PDE10A); format: biochemical, human, rat and mouse; details: substrate 20 nM, 60 minutes at 29° C.
# Protocol: a) Measurement of PDE Activity
# The recombinant PDE proteins are used in in vitro enzymatic reaction for measurement of PDE activity. These recombinant proteins, including PDE10A (human, rat and mouse PDE10) and isoforms of PDEs 1, 3, 4, and 5, were purchased from commercial vendor BPS Bioscience. The enzymatic activity of PDEs was determined by cAMP measurement kit from CisBio (IBA) using HTRF technology.
# The PDE enzymatic reaction was carried out in assay buffer (20 mM Tris-HCl pH 7.5, 10 mM MgCl2, 0.1% bovine serum albumin) containing enzyme and substrate. […] The substrate cyclic nucleotide (cAMP or cGMP) concentration used in the assay was 20 nM for PDE10, and 100 nM for other PDEs. The inhibitory effect of compound was determined by incubating various concentration of inhibitor in the enzymatic assay. […] Next, the compound at varying concentration was mixed with PDE enzyme. The reaction was initiated by addition of cyclic nucleotide substrate, and incubated for 60 minutes at 29° C. The reaction was stopped by addition of lysis buffer from the assay kit. The cAMP-d2 and anti-cAMP cryptate in the lysis buffer detected the level of cAMP left from the PDE hydrolysis reaction. […] Thus, IC50 value of inhibitor can be obtained by plotting inhibitor concentration against PDE activity at that concentration.
# [2] = Determination of the microsomal half-life / microsomal clearance, rat liver microsomes; format: in vitro ADME; details: 0.5 μM test substance, 0.25 mg of microsomal protein/mL, NADPH, 37° C.
# In short: as §1
SMILES,Human mCl [1],IC50 (PDE10A) [nM],Rat mCl [2]
"Cn1nc(Oc2ccccc2C#N)c2scc(-c3ccncc3)c2c1=O.O=C(O)C(F)(F)F [Example 83, 2-{[5-methyl-4-oxo-3-(pyridin-4-yl)-4,5-dihydrothieno[2,3-d]pyridazin-7-yl]oxy}benzonitrile trifluoroacetate]",+ (+: 100-220 μl min^−1 mg^−1),100 to 200,++ (++: <100 μl min^−1 mg^−1)
"COc1cccc(COc2nn(C)c(=O)c3c(-c4ccncc4)csc23)c1 [Example 61, 7-[(3-methoxybenzyl)oxy]-5-methyl-3-(pyridin-4-yl)thieno[2,3-d]pyridazin-4(5H)-one]",++ (++: <100 μl min^−1 mg^−1),100 to 200,+ (+: 100-220 μl min^−1 mg^−1)
"Cn1nc(Oc2cccnc2)c2scc(-c3ccncc3)c2c1=O [Example 82, 5-methyl-3-(pyridin-4-yl)-7-(pyridin-3-yloxy)thieno[2,3-d]pyridazin-4(5H)-one]",++ (++: <100 μl min^−1 mg^−1),200 to 500,++ (++: <100 μl min^−1 mg^−1)
"COc1cc(COc2nn(C)c(=O)c3c(-c4ccncc4)csc23)cc(OC)c1 [Example 75, 7-[(3,5-dimethoxybenzyl)oxy]-5-methyl-3-(pyridin-4-yl)thieno[2,3-d]pyridazin-4(5H)-one]",+ (+: 100-220 μl min^−1 mg^−1),< 100,++ (++: <100 μl min^−1 mg^−1)
"Cn1nc(-c2ccc3c(c2)OCO3)c2scc(-c3ccncc3)c2c1=O [Example 124, 7-(1,3-benzodioxol-5-yl)-5-methyl-3-(pyridin-4-yl)thieno[2,3-d]pyridazin-4(5H)-one]",+ (+: 100-220 μl min^−1 mg^−1),200 to 500,+ (+: 100-220 μl min^−1 mg^−1)
"COc1cccc(-c2nn(C)c(=O)c3c(-c4ccncc4)csc23)c1 [Example 123, 7-(3-methoxyphenyl)-5-methyl-3-(pyridin-4-yl)thieno[2,3-d]pyridazin-4(5H)-one]",+ (+: 100-220 μl min^−1 mg^−1),100 to 200,∘ (∘ not avialable or >220 μl min^−1 mg^−1)
"CC(C)n1nc(-c2ccncc2)c2scc(-c3ccncc3)c2c1=O [Example 135, 5-(propan-2-yl)-3,7-di(pyridin-4-yl)thieno[2,3-d]pyridazin-4(5H)-one]",++ (++: <100 μl min^−1 mg^−1),200 to 500,+ (+: 100-220 μl min^−1 mg^−1)
"Cn1nc(OCc2ccc(Cl)cc2)c2scc(-c3ccncc3)c2c1=O [Example 62, 7-[(4-chlorobenzyl)oxy]-5-methyl-3-(pyridin-4-yl)thieno[2,3-d]pyridazin-4(5H)-one]",++ (++: <100 μl min^−1 mg^−1),200 to 500,++ (++: <100 μl min^−1 mg^−1)
"CCCn1nc(-c2ccncc2)c2scc(-c3ccncc3)c2c1=O [Example 139, 5-propyl-3,7-di(pyridin-4-yl)thieno[2,3-d]pyridazin-4(5H)-one]",+ (+: 100-220 μl min^−1 mg^−1),100 to 200,++ (++: <100 μl min^−1 mg^−1)
"COc1ccc(-c2nn(C)c(=O)c3c(-c4ccncc4)csc23)cc1 [Example 96, 7-(4-methoxyphenyl)-5-methyl-3-(pyridin-4-yl)thieno[2,3-d]pyridazin-4(5H)-one]",+ (+: 100-220 μl min^−1 mg^−1),< 100,++ (++: <100 μl min^−1 mg^−1)
"Cc1ncc(-c2csc3c(-c4ccncc4)nn(CC(F)(F)F)c(=O)c23)cn1 [Example 128, 3-(2-methylpyrimidin-5-yl)-7-(pyridin-4-yl)-5-(2,2,2-trifluoroethyl)thieno[2,3-d]pyridazin-4(5H)-one]",++ (++: <100 μl min^−1 mg^−1),200 to 500,++ (++: <100 μl min^−1 mg^−1)
"Cn1nc(-c2ccncc2)c2scc(N3CCOCC3)c2c1=O [Example 3, 5-methyl-3-(morpholin-4-yl)-7-(pyridin-4-yl)thieno[2,3-d]pyridazin-4(5H)-one]",++ (++: <100 μl min^−1 mg^−1),200 to 500,++ (++: <100 μl min^−1 mg^−1)
"Cn1nc(OCc2ccc3c(c2)OCO3)c2scc(-c3ccncc3)c2c1=O [Example 69, 7-(1,3-benzodioxol-5-ylmethoxy)-5-methyl-3-(pyridin-4-yl)thieno[2,3-d]pyridazin-4(5H)-one]",++ (++: <100 μl min^−1 mg^−1),100 to 200,+ (+: 100-220 μl min^−1 mg^−1)
"COc1ccc(Oc2nn(C)c(=O)c3c(-c4ccncc4)csc23)cc1 [Example 86, 7-(4-methoxyphenoxy)-5-methyl-3-(pyridin-4-yl)thieno[2,3-d]pyridazin-4(5H)-one]",++ (++: <100 μl min^−1 mg^−1),200 to 500,+ (+: 100-220 μl min^−1 mg^−1)
"COc1ccccc1Oc1nn(C)c(=O)c2c(-c3ccncc3)csc12.O=C(O)C(F)(F)F [Example 84, 7-(2-methoxyphenoxy)-5-methyl-3-(pyridin-4-yl)thieno[2,3-d]pyridazin-4(5H)-one trifluoroacetate]",++ (++: <100 μl min^−1 mg^−1),100 to 200,∘ (∘ not avialable or >220 μl min^−1 mg^−1)
"CC(Oc1nn(C)c(=O)c2c(-c3ccncc3)csc12)c1nc2ccccc2n1C (stereo not drawn) [Example 78, 5-methyl-7-[1-(1-methyl-1H-benzimidazol-2-yl)ethoxy]-3-(pyridin-4-yl)thieno[2,3-d]pyridazin-4(5H)-one]",++ (++: <100 μl min^−1 mg^−1),< 100,+ (+: 100-220 μl min^−1 mg^−1)
"Cn1nc(NCc2ccccc2)c2scc(-c3ccncc3)c2c1=O.O=C(O)C(F)(F)F.O=C(O)C(F)(F)F [Example 50, 7-(benzylamino)-5-methyl-3-(pyridin-4-yl)thieno[2,3-d]pyridazin-4(5H)-one bis(trifluoroacetate)]",++ (++: <100 μl min^−1 mg^−1),100 to 200,++ (++: <100 μl min^−1 mg^−1)
"Cn1nc(OCc2cccc3ccoc23)c2scc(-c3ccncc3)c2c1=O [Example 64, 7-(1-benzofuran-7-ylmethoxy)-5-methyl-3-(pyridin-4-yl)thieno[2,3-d]pyridazin-4(5H)-one]",++ (++: <100 μl min^−1 mg^−1),100 to 200,++ (++: <100 μl min^−1 mg^−1)
"Cn1nc(OCc2ccccc2)c2scc(-c3ccncc3)c2c1=O [Example 54, 7-(benzyloxy)-5-methyl-3-(pyridin-4-yl)thieno[2,3-d]pyridazin-4(5H)-one]",++ (++: <100 μl min^−1 mg^−1),100 to 200,+ (+: 100-220 μl min^−1 mg^−1)
"Cn1nc(-c2cccc(C#N)c2)c2scc(-c3ccncc3)c2c1=O [Example 94, 3-[5-methyl-4-oxo-3-(pyridin-4-yl)-4,5-dihydrothieno[2,3-d]pyridazin-7-yl]benzonitrile]",++ (++: <100 μl min^−1 mg^−1),100 to 200,++ (++: <100 μl min^−1 mg^−1)
"COc1cccc(Oc2nn(C)c(=O)c3c(-c4ccncc4)csc23)c1 [Example 85, 7-(3-methoxyphenoxy)-5-methyl-3-(pyridin-4-yl)thieno[2,3-d]pyridazin-4(5H)-one]",++ (++: <100 μl min^−1 mg^−1),100 to 200,++ (++: <100 μl min^−1 mg^−1)
"COc1cncc(Oc2nn(C)c(=O)c3c(-c4ccncc4)csc23)c1.O=C(O)C(F)(F)F.O=C(O)C(F)(F)F [Example 88, 7-[(5-methoxypyridin-3-yl)oxy]-5-methyl-3-(pyridin-4-yl)thieno[2,3-d]pyridazin-4(5H)-one bis(trifluoroacetate)]",++ (++: <100 μl min^−1 mg^−1),< 100,++ (++: <100 μl min^−1 mg^−1)
"Cn1nc(OCc2ccccn2)c2scc(-c3ccncc3)c2c1=O [Example 55, 5-methyl-3-(pyridin-4-yl)-7-(pyridin-2-ylmethoxy)thieno[2,3-d]pyridazin-4(5H)-one]",++ (++: <100 μl min^−1 mg^−1),100 to 200,+ (+: 100-220 μl min^−1 mg^−1)
"Cn1nc(-c2ccncc2)c2scc(-c3ccncc3)c2c1=O [Example 130, 5-methyl-3,7-di(pyridin-4-yl)thieno[2,3-d]pyridazin-4(5H)-one]",++ (++: <100 μl min^−1 mg^−1),100 to 200,++ (++: <100 μl min^−1 mg^−1)
"Cn1nc(-c2ccc3ncoc3c2)c2scc(-c3ccncc3)c2c1=O [Example 97, 7-(1,3-benzoxazol-6-yl)-5-methyl-3-(pyridin-4-yl)thieno[2,3-d]pyridazin-4(5H)-one]",++ (++: <100 μl min^−1 mg^−1),< 100,++ (++: <100 μl min^−1 mg^−1)

# From patent publication US9200005B2, “Inhibitor compounds of phosphodiesterase type 10A” (AbbVie Deutschland GmbH & Co. KG, priority 2013, dated 2015)
